# Test results reported in patent US20170073337A1, “DIHYDROTHIAZINE AND DIHYDROOXAZINE DERIVATIVES HAVING BACE1 INHIBITORY ACTIVITY” (Shionogi & Co., Ltd., priority 2014, published 2017).
# Like-named read-outs stand apart in the source and are kept apart here.
# How the values were obtained:
# [1] = target: T1, CYP1A2 (Homo sapiens, UniProt P05177); assay: CYP inhibition test (CYP1A2); assay type: in vitro ADME; details: pooled human liver microsomes; 7-ethoxyresorufin O-deethylation
# T1 construct: The commercially available pooled human liver microsomes are used as an enzyme resource; from tissue; host or cells: pooled human liver microsomes
# T1 sequence (P05177 1-516): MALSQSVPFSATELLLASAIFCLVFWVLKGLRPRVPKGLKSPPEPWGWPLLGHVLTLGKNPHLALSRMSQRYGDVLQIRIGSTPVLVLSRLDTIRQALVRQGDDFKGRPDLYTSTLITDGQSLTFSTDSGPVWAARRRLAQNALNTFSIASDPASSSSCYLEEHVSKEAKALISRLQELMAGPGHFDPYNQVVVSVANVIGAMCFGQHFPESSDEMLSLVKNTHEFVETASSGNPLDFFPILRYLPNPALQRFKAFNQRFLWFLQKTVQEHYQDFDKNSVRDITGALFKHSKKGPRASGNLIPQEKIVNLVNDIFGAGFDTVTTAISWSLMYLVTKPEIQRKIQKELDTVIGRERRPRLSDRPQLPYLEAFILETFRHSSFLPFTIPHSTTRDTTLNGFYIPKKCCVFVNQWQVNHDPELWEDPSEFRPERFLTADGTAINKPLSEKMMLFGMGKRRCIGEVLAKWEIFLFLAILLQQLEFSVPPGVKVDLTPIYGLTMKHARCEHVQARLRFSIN
# Summary of the method: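 Inhibition of CYP1A2 was measured in commercially available pooled human liver microsomes (0.2 mg protein/mL) using 7-ethoxyresorufin O-deethylation with 0.5 μmol/L ethoxyresorufin. Test compound at 1, 5, 10, 20 μmol/L in […] Hepes buffer was incubated at 37° C. after NADPH addition; methanol/acetonitrile=1/1 (v/v) stopped the reaction, and resorufin was read fluorescently.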
# [2] = target: T2, CYP2C19 (Homo sapiens, UniProt P33261); assay: CYP inhibition test (CYP2C19); assay type: in vitro ADME; details: pooled human liver microsomes; mephenytoin 4′-hydroxylation
# T2 construct: The commercially available pooled human liver microsomes are used as an enzyme resource; from tissue; host or cells: pooled human liver microsomes
# Summary of the method: (§1)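 Metabolite formation was quantified by LC/MS/MS: dextrorphan (2D6, 5 μmol/L dextromethorphan), terfenadine alcohol (3A4, 1 μmol/L terfenadine), 4′-hydroxymephenytoin (2C19, 50 μmol/L S-mephenytoin) and hydroxytolbutamide (2C9, 100 μmol/L tolbutamide). Reactions used NADPH-started pooled human liver microsomes (0.2 mg/mL) at 37 °C with compound at 1–20 μmol/L (four points). IC50 was calculated by logistic model relative to the DMSO control.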
# [3] = target: T3, CYP3A4 (Homo sapiens, UniProt P08684); assay: CYP inhibition test (CYP3A4); assay type: in vitro ADME; details: pooled human liver microsomes; terfenadine hydroxylation
# T3 construct: The commercially available pooled human liver microsomes are used as an enzyme resource; from tissue; host or cells: pooled human liver microsomes
# Summary of the method: as §1
# [4] = Solubility test; assay type: physicochemical
# Summary of the method: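 Dissolved concentration determined by LC/MS or SPE/MS (absolute calibration) in diluted filtrates, after 2 μL of 10 mmol/L DMSO stock was added to 198 μL JP 1st or JP 2nd fluid and equilibrated either 1 h with shaking at room temperature or 16 h standing at 25 °C.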
# [5] = Metabolic stability test; assay type: in vitro ADME; details: human liver microsomes, 37° C., 30 minutes, NADPH
# Summary of the method: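 Parent compound was measured by LC/MS/MS or SPE/MS after a methanol/acetonitrile quench and reported as % remaining, with the 0 min sample set to 100%. Incubations ran 30 min at 37 °C in pH 7.4 Tris buffer containing pooled human liver microsomes at 0.5 mg protein/mL and 1 mmol/L NADPH.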
# [6] = target: T4, human ether-a-go-go related gene (hERG) channel (Homo sapiens, UniProt Q12809); assay: hERG test; assay type: cell-based; details: % inhibition of IKr tail peak current at 3 uM; CHO cells expressing hERG
# T4 construct: expressed in transfected cells; host or cells: CHO cells
# Summary of the method: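 IKr was recorded from hERG-expressing CHO cells by automated whole-cell patch clamp at a holding potential of −80 mV. A −50 mV leak step was followed by a 2 s depolarization to +20 mV and a 2 s repolarization to −50 mV, when current was measured.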
# [7] = JP 1st fluid, 25 °C, pH 1.2, simulated gastric fluid, kinetic from dmso stock, read-out: JP1
# [8] = JP 2nd fluid A, 25 °C, pH 6.8, aqueous buffer, kinetic from dmso stock, read-out: JP2_μM
# [9] = JP 1st fluid, pH 1.2, simulated gastric fluid, kinetic from dmso stock, read-out: JP1
# [10] = solubility in JP 2nd fluid B, 1% DMSO, *2: shaken for 1 hour at room temperature, read-out: JP2_μM
# [11] = JP 2nd fluid B, pH 6.8, aqueous buffer, kinetic from dmso stock, read-out: JP2_μM
# T2 sequence (P33261 whole entry): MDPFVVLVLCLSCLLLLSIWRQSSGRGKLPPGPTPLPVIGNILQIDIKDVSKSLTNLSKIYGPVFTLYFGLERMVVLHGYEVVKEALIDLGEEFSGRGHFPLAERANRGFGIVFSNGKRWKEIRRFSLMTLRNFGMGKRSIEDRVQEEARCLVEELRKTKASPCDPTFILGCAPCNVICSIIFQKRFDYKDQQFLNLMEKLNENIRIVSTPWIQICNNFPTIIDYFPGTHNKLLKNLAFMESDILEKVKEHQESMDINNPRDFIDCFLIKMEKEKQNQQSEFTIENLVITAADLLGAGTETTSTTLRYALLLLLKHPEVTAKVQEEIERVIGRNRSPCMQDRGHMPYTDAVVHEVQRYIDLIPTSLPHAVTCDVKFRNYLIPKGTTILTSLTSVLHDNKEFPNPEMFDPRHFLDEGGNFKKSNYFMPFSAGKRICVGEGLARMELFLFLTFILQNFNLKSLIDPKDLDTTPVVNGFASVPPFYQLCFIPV
# T4 sequence (Q12809 whole entry): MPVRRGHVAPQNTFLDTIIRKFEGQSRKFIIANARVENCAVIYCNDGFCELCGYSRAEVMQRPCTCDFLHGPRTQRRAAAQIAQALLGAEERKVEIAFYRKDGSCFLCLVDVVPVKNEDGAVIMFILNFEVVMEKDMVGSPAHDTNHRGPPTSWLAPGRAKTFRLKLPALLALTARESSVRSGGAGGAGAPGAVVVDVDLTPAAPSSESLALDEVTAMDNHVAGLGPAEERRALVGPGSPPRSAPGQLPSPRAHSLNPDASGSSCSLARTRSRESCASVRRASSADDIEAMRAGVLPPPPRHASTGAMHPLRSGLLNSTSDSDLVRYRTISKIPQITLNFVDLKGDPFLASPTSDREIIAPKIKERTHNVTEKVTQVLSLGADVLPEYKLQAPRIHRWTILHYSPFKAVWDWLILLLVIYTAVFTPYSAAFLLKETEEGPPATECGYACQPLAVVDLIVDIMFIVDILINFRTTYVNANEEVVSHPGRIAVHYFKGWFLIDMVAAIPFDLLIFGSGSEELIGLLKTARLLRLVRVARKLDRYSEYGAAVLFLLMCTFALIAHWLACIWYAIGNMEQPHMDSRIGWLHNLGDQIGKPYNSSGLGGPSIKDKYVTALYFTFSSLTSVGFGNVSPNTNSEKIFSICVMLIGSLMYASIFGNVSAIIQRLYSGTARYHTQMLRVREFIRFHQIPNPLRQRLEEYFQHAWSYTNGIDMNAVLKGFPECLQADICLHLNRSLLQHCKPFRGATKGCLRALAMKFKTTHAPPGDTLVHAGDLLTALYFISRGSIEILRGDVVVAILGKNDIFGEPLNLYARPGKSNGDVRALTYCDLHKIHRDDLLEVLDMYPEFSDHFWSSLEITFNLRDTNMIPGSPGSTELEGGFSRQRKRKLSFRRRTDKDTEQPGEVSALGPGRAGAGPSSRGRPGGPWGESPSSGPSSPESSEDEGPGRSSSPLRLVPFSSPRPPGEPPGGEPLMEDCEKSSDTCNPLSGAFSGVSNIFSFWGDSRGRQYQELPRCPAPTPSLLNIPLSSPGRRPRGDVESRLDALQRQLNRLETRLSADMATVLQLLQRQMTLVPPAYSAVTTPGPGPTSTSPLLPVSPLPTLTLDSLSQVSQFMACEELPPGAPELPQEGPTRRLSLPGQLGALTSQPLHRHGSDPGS
# T3 sequence (P08684 whole entry): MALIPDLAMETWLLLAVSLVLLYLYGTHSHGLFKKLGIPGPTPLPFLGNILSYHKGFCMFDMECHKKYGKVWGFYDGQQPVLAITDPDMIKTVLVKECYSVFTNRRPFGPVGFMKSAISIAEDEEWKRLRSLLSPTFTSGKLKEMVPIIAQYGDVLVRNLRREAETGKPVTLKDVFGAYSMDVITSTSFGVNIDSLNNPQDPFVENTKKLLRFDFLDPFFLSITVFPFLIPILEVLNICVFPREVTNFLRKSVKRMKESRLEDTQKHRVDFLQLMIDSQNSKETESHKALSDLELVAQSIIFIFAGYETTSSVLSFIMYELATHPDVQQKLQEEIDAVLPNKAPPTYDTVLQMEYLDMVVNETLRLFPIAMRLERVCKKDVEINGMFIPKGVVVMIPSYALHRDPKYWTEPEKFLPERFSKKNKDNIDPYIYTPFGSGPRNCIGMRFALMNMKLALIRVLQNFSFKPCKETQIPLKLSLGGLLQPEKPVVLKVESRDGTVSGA
SMILES,IC50 [1],IC50 [2],IC50 [3],"solubility kinetic at 16 h [4, 7]","solubility kinetic at 16 h [4, 8]",remaining % [5],"solubility kinetic at 1 h [4, 9]","solubility kinetic at 1 h ([4]; JP 2nd fluid A, pH 6.8, aqueous buffer, kinetic from dmso stock, read-out: JP2_μM)","solubility kinetic at 16 h [4, 10]","solubility kinetic at 1 h [4, 11]",hERG_3 uM_% [6]
C[C@H]1SC(N)=N[C@](C)(c2nc(NC(=O)c3ccc(F)cn3)ccc2F)[C@H]1F [Compound I-2],≥ 20 µM,≥ 20 µM,≥ 20 µM,23.3 µM,> 50 µM,88%,–,–,–,–,38.7%
C[C@]1(c2cc(NC(=O)c3ccc(F)cn3)ccc2F)N=C(N)O[C@H](CF)[C@@H]1OCC(F)(F)F [Compound I-11],≥ 20 µM,≥ 20 µM,≥ 20 µM,42.7 µM,> 50 µM,104%,–,–,–,–,42.5%
C[C@]1(c2cc(NC(=O)c3cnc(OCF)cn3)ccc2F)N=C(N)O[C@H](CF)[C@@H]1OCC(F)(F)F [Compound I-12],≥ 20 µM,≥ 20 µM,≥ 20 µM,36.1 µM,> 50 µM,97.8%,–,–,–,–,35.5%
C[C@H](F)[C@H]1OC(N)=N[C@](C)(c2cc(NC(=O)c3ccc(C#N)cn3)ccc2F)[C@H]1F [Compound I-13],≥ 20 µM,≥ 20 µM,≥ 20 µM,39.6 µM,> 50 µM,101%,–,–,–,–,52.8%
C[C@@H](F)[C@H]1OC(N)=N[C@](C)(c2cc(NC(=O)c3ccc(C#N)cn3)ccc2F)[C@H]1F [Compound I-15],≥ 20 µM,≥ 20 µM,≥ 20 µM,–,–,104%,31.9 µM,> 50 µM,–,–,57%
CO[C@H]1[C@@H](CF)OC(N)=N[C@]1(C)c1cc(NC(=O)c2ccc(C#N)cn2)ccc1Cl [Compound I-18],≥ 20 µM,≥ 20 µM,≥ 20 µM,36 µM,> 50 µM,71.4%,–,–,–,–,44.8%
CO[C@H]1[C@@H](CF)OC(N)=N[C@]1(C)c1cc(NC(=O)c2cnc(OCF)cn2)ccc1Cl [Compound I-19],≥ 20 µM,≥ 20 µM,≥ 20 µM,37.1 µM,> 50 µM,69.9%,–,–,–,–,18.8%
CO[C@H]1[C@@H](CF)OC(N)=N[C@]1(C)c1cc(NC(=O)c2ccc(F)cn2)ccc1Cl [Compound I-20],≥ 20 µM,≥ 20 µM,≥ 20 µM,38.9 µM,> 50 µM,75.4%,–,–,–,–,30.4%
CO[C@H]1[C@@H](CF)OC(N)=N[C@]1(C)c1cc(NC(=O)c2cnc(OCF)cn2)ccc1F [Compound I-24],≥ 20 µM,≥ 20 µM,≥ 20 µM,38.8 µM,> 50 µM,95.5%,–,–,–,–,6.7%
CO[C@H]1[C@@H](CF)OC(N)=N[C@]1(C)c1cc(NC(=O)c2ccc(F)cn2)ccc1F [Compound I-25],≥ 20 µM,≥ 20 µM,≥ 20 µM,46.7 µM,> 50 µM,89.1%,–,–,–,–,41.9%
C[C@@H]1[C@@H](C(F)(F)F)OC(N)=N[C@]1(C)c1cc(NC(=O)c2ccc(C#N)cn2)ccc1F [Compound I-27],≥ 20 µM,≥ 20 µM,≥ 20 µM,39.7 µM,> 50 µM,84.7%,–,–,–,–,28.8%
C[C@H]1[C@H](C(F)(F)F)OC(N)=N[C@]1(C)c1cc(NC(=O)c2ccc(C#N)cn2)ccc1F [Compound I-29],≥ 10 µM,≥ 20 µM,≥ 20 µM,35 µM,> 50 µM,98.2%,–,–,–,–,45.4%
C[C@H]1[C@@H](C(F)F)OC(N)=N[C@]1(C)c1cc(NC(=O)c2ccc(C#N)cn2)ccc1F [Compound I-31],–,≥ 20 µM,≥ 20 µM,38.8 µM,> 50 µM,85%,–,–,–,–,27.4%
CC(F)(F)[C@H]1OC(N)=N[C@](C)(c2cc(NC(=O)c3cnc(OCC(F)(F)F)cn3)ccc2F)[C@H]1F [Compound I-75],≥ 20 µM,≥ 20 µM,–,–,–,85.2%,> 50 µM,–,–,3 µM,21.3%

# More lines, main results first:
IC50 [1],IC50 [2],IC50 [3],"solubility kinetic at 16 h [4, 7]","solubility kinetic at 16 h [4, 8]",remaining % [5],"solubility kinetic at 1 h [4, 9]","solubility kinetic at 1 h ([4]; JP 2nd fluid A, pH 6.8, aqueous buffer, kinetic from dmso stock, read-out: JP2_μM)","solubility kinetic at 16 h [4, 10]","solubility kinetic at 1 h [4, 11]",SMILES,hERG_3 uM_% [6]
≥ 20 µM,≥ 20 µM,≥ 20 µM,> 50 µM,> 50 µM,81.4%,–,–,–,–,C[C@H]1SC(N)=N[C@](C)(c2nc(NC(=O)c3cnc(OCF)cn3)ccc2F)[C@H]1F [Compound I-3],45.5%
–,≥ 20 µM,≥ 20 µM,–,–,80.3%,> 50 µM,–,>50 µM,–,C[C@H]1SC(N)=N[C@](C)(c2cc(NC(=O)c3ncc(C#N)cc3Cl)ccc2F)[C@H]1F [Compound I-64],41.3%
–,≥ 20 µM,≥ 20 µM,–,–,96.5%,> 50 µM,–,>50 µM,–,C[C@H]1SC(N)=N[C@](C)(c2cc(NC(=O)c3cnc(C(F)F)cn3)ccc2F)[C@H]1F [Compound I-65],28%
≥ 20 µM,≥ 20 µM,–,–,–,69%,> 50 µM,–,>50 µM,–,CC[C@H]1SC(N)=N[C@](C)(c2cc(NC(=O)c3ccc(OCF)cn3)ccc2F)[C@H]1F [Compound I-67],56.5%
≥ 20 µM,≥ 20 µM,–,–,–,93.1%,> 50 µM,–,–,11.1 µM,CC(F)(F)[C@H]1OC(N)=N[C@](C)(c2cc(NC(=O)c3cnc(OCC(F)F)cn3)ccc2F)[C@H]1F [Compound I-77],44.1%
≥ 20 µM,≥ 20 µM,–,–,–,96.5%,> 50 µM,–,>50 µM,–,C[C@]1(c2cc(NC(=O)c3cnc(OCF)cn3)ccc2F)N=C(N)O[C@H](C(F)(F)C2CC2)[C@@H]1F [Compound I-82],17.5%
≥ 20 µM,≥ 20 µM,–,–,–,55.3%,> 50 µM,–,–,29.6 µM,COc1cnc(C(=O)Nc2ccc(F)c([C@@]3(C)N=C(N)O[C@H](C(F)(F)C4CC4)[C@@H]3F)c2)cn1 [Compound I-83],18.1%
≥ 20 µM,≥ 20 µM,–,–,–,93.2%,47.2 µM,–,–,0.6 µM,C[C@H]1SC(N)=N[C@](C)(c2cc(NC(=O)c3cnc(OCC4CC4)cn3)ccc2F)[C@H]1F [Compound I-85],41.4%
